# Target: T1, Jak1 (Homo sapiens, UniProt P23458)
# T1 construct: using a recombinant purified GST-tagged catalytic domain for each enzyme; GST; purchased Invitrogen M4290
# Assay: Jak Biochemical HTRF Assay (Jak1)
# Conditions: IC50 class, recombinant GST-tagged catalytic domain, read-out: Jak1 activity
# Description: Compounds of formula I can be prepared according to the general procedures described in the Schemes and Examples herein, using appropriate materials. Representative compounds of the present invention are exemplified herein below. The compounds exemplified are not, however, to be construed as limiting the scope of the invention in any manner. The examples further illustrate details for the preparation of the compounds of the present invention. Those skilled in the art will readily understand that known variations of protecting groups, of reagents, as well as of the conditions and processes of the following preparative procedures, can be used to prepare these compounds. It is also understood that whenever a chemical reagent is not commercially available, such a chemical reagent can be readily prepared by those skilled in the art by either following or adapting known methods described in the literature or described herein. Chiral analogs were prepared via incorporation of chiral reagents or obtained after chiral chromatography separation of a racemically generated analog. All temperatures are degrees Celsius unless otherwise noted. Mass spectra (MS) were measured either by electrospray ion-mass spectroscopy (ESMS) or by atmospheric pressure chemical ionization mass spectroscopy (APCI). Jak1 data were obtained using the in vitro assay described below.
# Jak Biochemical HTRF Assay Protocol
# The ability of compounds to inhibit the activity of Jak1, Jak2, Jak3, and Tyk2 was measured using a recombinant purified GST-tagged catalytic domain for each enzyme (Invitrogen Jak1 #M4290, […]) in an HTRF format biochemical assay. The reactions employed a common peptide substrate, LCB-EQEDEPEGDYFEWLW-NH2 (in-house). The basic assay protocol is as follows: First, […] of diluted compounds in DMSO were dispensed into the wells of a dry 384-well Black plate (Greiner #781076) using a Labcyte Echo 555 acoustic dispenser. Subsequent reagent additions employed an Agilent Bravo. Next, 18 μL, of 1.11X enzyme and 1.11X substrate in 1X assay buffer (Invitrogen kinase buffer #PV3189, 2 mM DTT, 0.05% BSA) were added to the wells and shaken and then preincubated for 30 minutes at room temperature to allow compound binding to equilibrate. After equilibration, 2 μL of 10X ATP in 1X assay buffer was added to initiate the kinase reaction and the plates were shaken and then incubated at room temperature for 120 minutes. At the end of the incubation, 20 μL of 2X stop buffer (streptavidin-Dylight (Thermo #21845), Eu-tagged pY20 antibody (Perkin Elmer #AD0067), EDTA, HEPES, and Triton) was added to quench the reaction. Plates were shaken and centrifuged and then incubated 60 minutes at room temperature and then read on a Perkin Elmer Envision (λex=337 nm, λem=665 and 615 nm, TRF delay time=20 μs). HTRF signal=10,000*665 nm reading/615 nm reading. After normalization to untreated controls, the percent inhibition of the HTRF signal at each compound concentration was calculated. The plot of percent inhibition versus the log of compound concentration was fit with a 4-parameter dose response equation to calculate IC50 values.
# T1 sequence (P23458 875-1153 limits assumed): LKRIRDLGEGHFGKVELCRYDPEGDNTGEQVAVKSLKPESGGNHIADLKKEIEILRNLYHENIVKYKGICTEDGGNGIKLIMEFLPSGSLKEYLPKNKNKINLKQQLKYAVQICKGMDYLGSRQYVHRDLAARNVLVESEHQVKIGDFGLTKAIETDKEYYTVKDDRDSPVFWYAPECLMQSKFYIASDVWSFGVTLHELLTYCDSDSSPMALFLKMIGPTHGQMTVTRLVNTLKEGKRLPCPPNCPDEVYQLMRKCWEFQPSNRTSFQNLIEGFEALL
row,SMILES,IC50 [nM]
1,"COC(=O)c1ccc(CCC(=O)N2CCC[C@@H]3[C@H]2CCN3c2ncnc3[nH]ccc23)cc1 [Example 26, methyl 4-{3-oxo-3-[(3aR,7aR)-1-(7H-pyrrolo[2,3-d]pyrimidin-4-yl)octahydro-4H-pyrrolo[3,2-b]pyridine-4-yl]propyl}benzoate]",10 to 100
2,"CCC[C@H]1C[C@H]1C(=O)N1CCC[C@@H]2[C@H]1CCN2c1ncnc2[nH]ccc12 [Example 29-30, 4-[(3aR,7aR)-4-{[(1R,2S)-2-propylcyclopropyl]carbonyl}octahydro-1H-pyrrolo[3,2-b]pyridin-1-yl]-7H-pyrrolo[2,3-d]pyrimidine]",10 to 100
3,"O=C(OCCOCC(F)(F)F)N1CCC[C@@H]2[C@H]1CCN2c1ncnc2[nH]ccc12 (single isomer, unassigned) [Example 3-43]",10 to 100
4,"Cc1cc2c(N3CCC4C3CCCN4C(=O)OCc3ccccc3)ncnc2[nH]1 [Example 15, (3aS,7aS and 3aR,7aR) benzyl 1-(6-methyl-7H-pyrrolo[2,3-d]pyrimidin-4-yl)octahydro-4H-pyrrolo[3,2-b]pyridine-4-carboxylate]",10 to 100
5,"O=C(C(c1ccccc1)c1ccccc1)N1CCC[C@@H]2[C@H]1CCN2c1ncnc2[nH]ccc12 [Example 29-24, 4-[(3aR,7aR)-4-(diphenylacetyl)octahydro-1H-pyrrolo[3,2-b]pyridin-1-yl]-7H-pyrrolo[2,3-d]pyrimidine]",100 to 1000
6,"O=C(C1CCCCC1)N1CCC[C@@H]2[C@H]1CCN2c1ncnc2[nH]ccc12 [Example 29-15, 4-[(3aR,7aR)-4-(cyclohexylcarbonyl)octahydro-1H-pyrrolo[3,2-b]pyridin-1-yl]-7H-pyrrolo[2,3-d]pyrimidine]",10 to 100
7,"O=C(O)c1ccc(CNC(=O)N2CCC[C@@H]3[C@H]2CCN3c2ncnc3[nH]ccc23)cc1 [Example 25, 4-[({[(3aR,7aR)-1-(7H-pyrrolo[2,3-d]pyrimidin-4-yl)octahydro-4H-pyrrolo[3,2-b]pyridin-4-yl]carbonyl}amino)methyl]benzoic acid]",100 to 1000

# Results, then the compound that gave them:
row,IC50 [nM],SMILES
1,100 to 1000,"O=C(c1cn2ccccc2n1)N1CCC[C@@H]2[C@H]1CCN2c1ncnc2[nH]ccc12 [Example 29-25, 4-[(3aR,7aR)-4-(imidazo[1,2-a]pyridin-2-ylcarbonyl)octahydro-1H-pyrrolo[3,2-b]pyridin-1-yl]-7H-pyrrolo[2,3-d]pyrimidine]"
2,10 to 100,"O=C(OCc1ccccn1)N1CCCC2C1CCN2c1ncnc2[nH]ccc12 (centres unmarked) [Example 3-12, pyridin-2-ylmethyl 1-(7H-pyrrolo[2,3-d]pyrimidin-4-yl)octahydro-4H-pyrrolo[3,2-b]-pyridine-4-carboxylate]"
3,10 to 100,"N#Cc1ccccc1C(=O)N1CCC[C@@H]2[C@H]1CCN2c1ncnc2[nH]ccc12 [Example 29-33, 2-{[(3aR,7aR)-1-(7H-pyrrolo[2,3-d]pyrimidin-4-yl)octahydro-4H-pyrrolo[3,2-b]pyridin-4-yl]carbonyl}benzonitrile]"
4,10 to 100,"COc1ccc(CC(=O)N2CCCC3C2CCN3c2ncnc3[nH]ccc23)cc1 (centres unmarked) [Example 29-4, 4-{4-[(4-methoxyphenyl)acetyl]octahydro-1H-pyrrolo[3,2-b]pyridin-1-yl}-7H-pyrrolo[2,3-d]pyrimidine]"
5,10 to 100,"CC(Cc1ccccc1)C(=O)N1CCC[C@@H]2[C@H]1CCN2c1ncnc2[nH]ccc12 (stereo partly drawn) [Example 29-42, 4-[(3aR,7aR)-4-(2-methyl-3-phenylpropanoyl)octahydro-1H-pyrrolo[3,2-b]pyridin-1-yl]-7H-pyrrolo[2,3-d]pyrimidine]"
6,10 to 100,"O=C(c1ccccc1)N1CCC[C@@H]2[C@H]1CCN2c1ncnc2[nH]ccc12 [Example 29-34, 4-[(3aR,7aR)-4-(phenylcarbonyl)octahydro-1H-pyrrolo[3,2-b]pryidin-1-yl]-7H-pyrrolo[2,3-d]pyrimidine]"
7,100 to 1000,"CO[C@](C(=O)N1CCC[C@@H]2[C@H]1CCN2c1ncnc2[nH]ccc12)(c1ccccc1)C(F)(F)F [Example 18, (2S)-3,3,3-trifluoro-2-methoxy-2-phenyl-1-[(3aR,7aR)-1-(7H-pyrrolo[2,3-d]pyrimidin-4-yl)octahydro-4H-pyrrolo[3,2-b]pyridine-4-yl]propan-1 one]"

# — patent US8937077B2, “Bicyclic diamines as janus kinase inhibitors” (Merck Sharp & Dohme Corp., priority 2010, dated 2015)
